For test [1], the target named is T1, Vascular endothelial growth factor receptor 2 (Homo sapiens, UniProt P35968). The test can be described thus: Inhibition of recombinant N terminal GST-tagged human KDR (805 to 1356) expressed in baculovirus infected Sf9 cells after 90 mins by caliper mobility shift assay.
For test [2], the target named is T2, Insulin-like growth factor 1 receptor (Homo sapiens, UniProt P08069). Put plainly: Inhibition of recombinant N terminal His6-tagged human IGF1R (959 to end) expressed in baculovirus infected Sf21 cells after 80 mins by caliper mobility shift assay.
Test [3] has as its target T1, Vascular endothelial growth factor receptor 2. Put plainly: Inhibition of human KDR phosphorylation expressed in VEGF-stimulated HUVEC treated 90 mins before VEGF stimulation measured after 5 mins by ELISA. Format: cell-based.
Test [4] addresses T3, Fibroblast growth factor receptor 1 (Homo sapiens, UniProt P11362).
Description: Inhibition of human FGFR1 phosphorylation expressed in COS1 cells after 1 hr by immunoblotting
Test [5] has as its target T3, Fibroblast growth factor receptor 1. The test can be described thus: biochemical.
Description: Inhibition of recombinant N terminal GST-tagged human FGFR1 (456 to 765) expressed in baculovirus infected Sf21 cells after 40 mins by caliper mobility shift assay
The target in test [6] is T2, Insulin-like growth factor 1 receptor. The test can be described thus: Inhibition of human IGF1R phosphorylation expressed in IGF-1-stimulated knockout mouse R+ cells treated 30 mins before IGF-1 stimulation measured after 20 mins by immunofluorescence.
Test [7] deals with Dual specificity mitogen-activated protein kinase kinase 1 (Homo sapiens, UniProt Q02750). The test can be described thus: Inhibition of MEK1 fused with GST by autoradiography.
Chain of Dual specificity mitogen-activated protein kinase kinase 1 (Q02750 whole entry, the tested form may be a part): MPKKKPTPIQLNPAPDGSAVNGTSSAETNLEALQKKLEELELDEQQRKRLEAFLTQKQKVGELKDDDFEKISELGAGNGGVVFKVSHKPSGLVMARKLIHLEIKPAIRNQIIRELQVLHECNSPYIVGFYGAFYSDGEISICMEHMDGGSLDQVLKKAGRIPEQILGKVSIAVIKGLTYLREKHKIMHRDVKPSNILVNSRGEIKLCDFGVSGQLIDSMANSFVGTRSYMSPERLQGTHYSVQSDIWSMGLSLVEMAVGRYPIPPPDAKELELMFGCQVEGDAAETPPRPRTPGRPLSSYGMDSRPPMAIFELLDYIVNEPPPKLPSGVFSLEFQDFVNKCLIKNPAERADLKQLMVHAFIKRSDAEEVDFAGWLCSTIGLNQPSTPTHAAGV

The record followed here is ChEMBL document CHEMBL2086247, “Protein-ligand crystal structures can guide the design of selective inhibitors of the FGFR tyrosine kinase” (J Med Chem, 2012).

Each structure is given as a SMILES string.

T3 sequence (P11362 whole entry): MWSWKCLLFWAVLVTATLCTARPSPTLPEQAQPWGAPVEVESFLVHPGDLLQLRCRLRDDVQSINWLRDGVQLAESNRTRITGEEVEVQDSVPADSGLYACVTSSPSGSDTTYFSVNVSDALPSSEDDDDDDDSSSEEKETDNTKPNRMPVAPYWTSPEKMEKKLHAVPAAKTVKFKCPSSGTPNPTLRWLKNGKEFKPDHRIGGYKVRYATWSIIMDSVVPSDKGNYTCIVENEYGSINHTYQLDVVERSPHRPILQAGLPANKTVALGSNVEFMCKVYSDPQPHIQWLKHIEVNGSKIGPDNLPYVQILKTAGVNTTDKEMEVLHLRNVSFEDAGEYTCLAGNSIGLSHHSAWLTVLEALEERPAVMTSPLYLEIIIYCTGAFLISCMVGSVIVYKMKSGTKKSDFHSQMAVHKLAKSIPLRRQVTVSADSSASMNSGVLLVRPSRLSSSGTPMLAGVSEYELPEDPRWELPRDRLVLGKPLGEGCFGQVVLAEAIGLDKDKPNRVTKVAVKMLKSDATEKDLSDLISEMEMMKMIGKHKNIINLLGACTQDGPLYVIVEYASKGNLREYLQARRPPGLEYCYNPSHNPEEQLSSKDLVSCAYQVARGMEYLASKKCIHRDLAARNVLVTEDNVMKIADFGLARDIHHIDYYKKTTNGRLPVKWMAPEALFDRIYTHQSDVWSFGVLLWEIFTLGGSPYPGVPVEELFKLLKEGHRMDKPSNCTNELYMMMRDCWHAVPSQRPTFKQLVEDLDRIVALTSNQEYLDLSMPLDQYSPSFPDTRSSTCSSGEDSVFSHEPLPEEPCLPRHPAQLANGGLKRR
T1 sequence (P35968 whole entry): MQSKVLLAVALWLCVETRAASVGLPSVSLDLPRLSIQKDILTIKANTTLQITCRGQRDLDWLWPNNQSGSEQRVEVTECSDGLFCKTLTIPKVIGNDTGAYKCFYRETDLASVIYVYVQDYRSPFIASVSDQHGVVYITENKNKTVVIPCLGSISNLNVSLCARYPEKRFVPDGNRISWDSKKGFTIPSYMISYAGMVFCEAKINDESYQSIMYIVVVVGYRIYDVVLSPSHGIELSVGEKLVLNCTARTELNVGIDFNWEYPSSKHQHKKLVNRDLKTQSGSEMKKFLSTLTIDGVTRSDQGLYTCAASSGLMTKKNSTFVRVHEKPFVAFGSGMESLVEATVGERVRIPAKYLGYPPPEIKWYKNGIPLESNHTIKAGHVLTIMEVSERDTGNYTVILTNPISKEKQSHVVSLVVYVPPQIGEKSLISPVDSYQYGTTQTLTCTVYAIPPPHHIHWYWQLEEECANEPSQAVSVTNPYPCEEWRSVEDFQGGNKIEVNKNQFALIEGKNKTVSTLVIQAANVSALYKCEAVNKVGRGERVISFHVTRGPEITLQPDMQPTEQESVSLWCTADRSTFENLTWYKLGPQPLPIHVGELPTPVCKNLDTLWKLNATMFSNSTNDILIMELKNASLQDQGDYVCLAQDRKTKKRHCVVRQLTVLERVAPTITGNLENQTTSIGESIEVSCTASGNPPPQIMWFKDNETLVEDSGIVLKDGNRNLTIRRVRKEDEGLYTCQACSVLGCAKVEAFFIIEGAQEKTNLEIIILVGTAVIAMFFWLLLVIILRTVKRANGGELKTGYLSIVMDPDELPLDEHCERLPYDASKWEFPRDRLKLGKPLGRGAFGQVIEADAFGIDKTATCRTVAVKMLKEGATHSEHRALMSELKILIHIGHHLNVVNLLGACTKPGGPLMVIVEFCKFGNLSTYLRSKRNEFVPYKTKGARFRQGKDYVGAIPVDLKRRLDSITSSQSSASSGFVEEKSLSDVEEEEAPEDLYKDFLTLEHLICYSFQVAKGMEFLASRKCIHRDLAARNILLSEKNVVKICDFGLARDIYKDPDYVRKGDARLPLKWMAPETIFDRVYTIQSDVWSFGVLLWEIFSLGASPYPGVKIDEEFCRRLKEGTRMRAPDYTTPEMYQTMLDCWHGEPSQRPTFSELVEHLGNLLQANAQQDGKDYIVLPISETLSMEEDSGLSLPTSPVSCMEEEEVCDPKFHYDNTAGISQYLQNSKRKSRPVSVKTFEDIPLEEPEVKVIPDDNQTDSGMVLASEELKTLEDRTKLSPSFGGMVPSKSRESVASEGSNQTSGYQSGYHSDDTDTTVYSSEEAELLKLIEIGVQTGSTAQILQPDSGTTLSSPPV

Broadly, the IC50 is the concentration at which inhibition is half-maximal. With `COc1cc(CCc2cc(Nc3ccnc(NCc4cc(C)no4)n3)n[nH]2)cc(OC)c1`, the half-maximal inhibitory concentration (IC50) in test [1] was 79.4 nM; in test [2] it was 6310 nM; in test [3] it was 1580 nM; in test [4], less than 15.8 nM; in test [5], 2 nM; in test [6] it was 5010 nM.

With `COCCCc1cc(Nc2ccnc(NCc3cc(C)no3)n2)n[nH]1`, the IC50 in test [1] is 2510 nM.

As for `Cc1cc(Nc2nc(NCCc3ccco3)ncc2Br)n[nH]1`, the IC50 is 200 nM in test [1], 3980 nM in test [2] and 200 nM in test [5].

Take `CCc1cc(Nc2nc(NCc3ccccn3)ncc2Br)n[nH]1`: the IC50 was 501 nM in test [1], 3160 nM in test [2] and 39.8 nM in test [5].

`COc1cc(CCc2cc(Nc3ccnc(NCc4ccccn4)n3)[nH]n2)cc(OC)c1`: the IC50 in test [1] is 398 nM; in test [2], 79400 nM; in test [5], 5.01 nM.

On to `Cc1cc(CNc2ncc(Br)c(Nc3cc(CCc4ccccc4)[nH]n3)n2)on1`, for which the 50% inhibitory concentration (IC50) is 25.1 nM in test [1]; 6310 nM in test [2]; 1580 nM in test [3]; 63.1 nM in test [4]; 2.51 nM in test [5]; 10000 nM in test [6].

In the case of `Cc1cc(Nc2nc(NCCc3cccnc3)ncc2Br)[nH]n1`, the IC50 in test [1] is 631 nM; in test [2], 6310 nM; in test [3], greater than 10000 nM; in test [4] it was 2510 nM; in test [5] it was 501 nM; in test [6] it was 3980 nM.

Regarding `CC(C)c1cc(Nc2nc(NCc3cccnc3)ncc2Br)n[nH]1`, the IC50 in test [1] and in test [2] was 398 nM each time.

As to `Cc1cc(Nc2nc(NCc3cc(C(C)(C)C)no3)ncc2Br)[nH]n1`, the IC50 was 3980 nM in test [1]; 10000 nM in test [2]; greater than 10000 nM in test [3]; 158 nM in test [4]; 31.6 nM in test [5]; 3160 nM in test [6].

With `C=CCNc1ncc(Br)c(Nc2cc(C)[nH]n2)n1`, the IC50 was 1000 nM in test [1], 3980 nM in test [2], 794 nM in test [3] and 6310 nM in test [6].

`Cc1cc(CNc2nccc(Nc3cc(C)[nH]n3)n2)on1`: the half-maximal inhibitory concentration (IC50) in test [1] was 1000 nM; in test [2] it was 12600 nM.

Consider `Cc1cnc(CNc2ncc(Br)c(Nc3cc(C)[nH]n3)n2)cn1`, for which the figures for the IC50 in test [1], in test [2] and in test [5] were 1000 nM, 12600 nM and 100 nM, respectively.

Turning to `Cc1cc(Nc2ccnc(NCc3cc(C4CC4)no3)n2)n[nH]1`, the values for the concentration for half-maximal inhibition (IC50) in test [1], in test [2] and in test [5] were 794 nM, 10000 nM and 25.1 nM, respectively.

For `COCCCc1cc(Nc2nc(NCc3cc(C)no3)ncc2Br)[nH]n1`, the IC50 in test [1] was 1260 nM; in test [2], 20000 nM; in test [3], greater than 10000 nM; in test [4], 794 nM; in test [5], 63.1 nM; in test [6] it was greater than 20000 nM.

In the case of `CCc1cc(Nc2nc(NCc3cc(-c4ccccn4)no3)ncc2Br)n[nH]1`, the values for the IC50 in test [1] and in test [2] were 3160 nM and 100 nM, respectively.

With `COCCCc1cc(Nc2ccnc(NCc3cc(C(N)=O)no3)n2)[nH]n1`, the IC50 in test [1] was 1260 nM; in test [2] it was 100000 nM.

In the case of `Cc1cc(Nc2nc(NCc3ncccc3C)ncc2Br)n[nH]1`, the IC50 is 501 nM in test [1] and 50100 nM in test [2].

Consider `Cc1cc(Nc2nc(NCc3cc(C)no3)ncc2Br)[nH]n1`, for which the IC50 in test [1] is 631 nM; in test [2] it was 7940 nM; in test [3], 6310 nM; in test [4] it was 158 nM; in test [5] it was 63.1 nM; in test [6] it was 6310 nM.

Regarding `Cc1cc(CCNc2ncc(Br)c(Nc3cc(C)[nH]n3)n2)on1`, the half-maximal inhibitory concentration (IC50) in test [1] is 501 nM; in test [2], 15800 nM; in test [5], 398 nM.

As for `Cc1cc(Nc2nc(NCCCc3c[nH]nc3C)ncc2Br)n[nH]1`, the IC50 was 501 nM in test [1], 6310 nM in test [2] and 126 nM in test [5].

In the case of `Cc1cc(CNc2nccc(Nc3cc(CCc4ccccc4)[nH]n3)n2)on1`, the IC50 in test [1] is 126 nM.

Consider `COc1cc(CCc2cc(Nc3ccnc(NCc4cc(C)on4)n3)n[nH]2)cc(OC)c1`, for which the half-inhibitory concentration (IC50) in test [1] was 126 nM; in test [2], 12600 nM; in test [5] it was 2 nM.

For `Cc1cc(CNc2ncc(Cl)c(Nc3cc(C)[nH]n3)n2)on1`, the IC50 in test [1] was 501 nM; in test [2], 7940 nM.

As for `CCCc1cc(Nc2nc(NCc3cc(C)no3)ncc2Br)n[nH]1`, the IC50 is 158 nM in test [1]; 398 nM in test [2]; 6310 nM in test [3]; 100 nM in test [4]; 10 nM in test [5]; 501 nM in test [6].

Take `Cc1cc(Nc2nc(NCc3ccccn3)ncc2Br)n[nH]1`: the half-inhibitory concentration (IC50) was 1580 nM in test [1], 12600 nM in test [2] and 200 nM in test [5].

For `CCN(CC)CCCCNc1ncc2cc(-c3cc(OC)cc(OC)c3)c(NC(=O)NC(C)(C)C)nc2n1` [PD-173074], in test [7], the half-maximal inhibitory concentration (IC50) was greater than 50000 nM.

Consider `Cc1cc(CNc2nccc(Nc3cc(CO)[nH]n3)n2)on1`, for which the IC50 in test [1] was 20000 nM; in test [2], 39800 nM.

Regarding `COCCCc1cc(Nc2ccnc(NCc3cc(C4CC4)no3)n2)n[nH]1`, the IC50 was 1580 nM in test [1] and 12600 nM in test [2].

In the case of `Cc1cc(Nc2nc(NCc3cc(C(=O)N4CCCC4)no3)ncc2Br)n[nH]1`, the IC50 in test [1] is 15800 nM; in test [2] it was 10000 nM.

In the case of `Cc1cc(Nc2ccnc(NCc3cc(C(N)=O)no3)n2)[nH]n1`, the IC50 in test [1] was 1260 nM; in test [2], 7940 nM; in test [5], 100 nM.

Take `CCCc1cc(Nc2nc(NCc3cccnc3)ncc2Br)n[nH]1`: the results for the IC50 in test [1] and in test [2] were 126 nM and 1580 nM, respectively.
